Reference: US9193725B2, “Cyclic hydrazine derivatives as HIV attachment inhibitors” (priority 2012, dated 2015)
Where two headings read alike, the source gives them in different places.

Tested on: HIV-1 LAI envelope single-round infectious reporter virus
Assay: Single-round infectious luciferase reporter virus (HIV-1 LAI envelope) infection of MT2 cells
Assay type: cell-based
Conditions: Human immunodeficiency virus 1, MT2, 72 h
Source text: • Virus production—Human embryonic Kidney cell line, 293T (HEK 293T), was propagated in Dulbecco's Modified Eagle Medium (Invitrogen, Carlsbad, Calif.) containing 10% fetal bovine serum (FBS, Sigma, St. Louis, Mo.). The human T-cell leukemia cell MT2 (AIDS Research and Reference Reagent Program, Cat. 237) was propagated in RPMI 1640 (Invitrogen, Carlsbad, Calif.) containing 10% fetal bovine serum (FBS, Hyclone, Logan, Utah) • Virus infection—Single-round infectious reporter virus was produced by co-transfecting HEK 293T cells with plasmide expressing the HIV-1 LAI envelope along with a plasmid containing an HIV-1 LAI proviral cDNA with the envelope gene replaced by a firefly luciferase reporter gene (Chen et al., Ref 41). Transfections were performed using lipofectAMINE PLUS reagent as described by the manufacturer (Invitrogen, Carlsbad, Calif.). Experimental Procedure • 1. MT2 cells were plated in black, 384 well plates at a cell density of 5×10^3 cells per well in 25 μl RPMI 1640 containing 10% FBS. • 2. Compound (diluted in dimethylsulfoxide and growth medium) was added to cells at 12.5 μl/well, so that the final assay concentration would be ≦50 nM. • 3. 12.5 μl of single-round infectious reporter virus in Dulbecco's Modified Eagle Medium was added to the plated cells and compound at an approximate multiplicity of infection (MOI) of 0.01, resulting in a final volume of 50 μl per well. • 4. Virus-infected cells were incubated at 37 degrees Celsius in a CO2 incubator and harvested 72 h after infection. • 5. Viral infection was monitored by measuring luciferase expression in the infected cells using a luciferase reporter gene assay kit (Steady-Glo, Promega, Madison, Wis.) as described by the manufacturer. Luciferase activity was then quantified by measuring luminescence using an EnVision Multilabel Plate Readers (PerkinElmer, Waltham, Mass.). • 6. The percent inhibition for each compound was calculated by quantifying the level of luciferase expression in cells infected in the presence of each compound as a percentage of that observed for cells infected in the absence of compound and subtracting such a determined value from 100. • 7. An EC50 provides a method for comparing the antiviral potency of the compounds of this disclosure. The effective concentration for fifty percent inhibition (EC50) was calculated with the Microsoft Excel Xlfit curve fitting software. For each compound, curves were generated from percent inhibition calculated at 10 different concentrations by using a four parameter logistic model (model 205). Table 1 is the key for the data in Table 2.

[1] = read-out: EC50 Group from Table 1

| SMILES | EC50 [1] [nM] | EC50 [nM] |
| --- | --- | --- |
| N#C/C(=C1\CCN(C(=O)C(=O)c2c[nH]c3c(-n4ccnn4)ncc(F)c23)NC1)c1ccccc1 [Compound 1001] | < 500 |  |
| COc1cnc(-n2cnc(C)n2)c2[nH]cc(C(=O)C(=O)N3CC/C(=C(\C#N)c4ccccc4)CN3)c12 [Compound 1002] | < 500 | 0.29 |
| COc1cnc(-n2cnc(C)n2)c2[nH]cc(C(=O)C(=O)N3CC/C(=C(/C#N)c4ccccc4)CN3C)c12 [Compound 1006, (Z)-2-(1-(2-(4-methoxy-7-(3-methyl-1H-1,2,4-triazol-1-yl)-1H-pyrrolo[2,3-c]pyridin-3-yl)-2-oxoacetyl)-2-methylpiperazin-4-ylidene)-2-phenylacetonitrile] | < 500 | 456 |
| COc1cnc(-n2cnc(C)n2)c2[nH]cc(C(=O)C(=O)N3CCc4c(-c5ccccc5)ncnc4N3C)c12 [Compound 2001, 1-(4-methoxy-7-(3-methyl-1H-1,2,4-triazol-1-yl)-1H-pyrrolo[2,3-c]pyridin-3-yl)-2-(1-methyl-5-phenyl-3,4-dihydropyrimido[4,5-c]pyridazin-2(1H)-yl)ethane-1,2-dione] | < 500 |  |
| COc1cnc(-n2cnc(C)n2)c2[nH]cc(C(=O)C(=O)N3CCc4c(-c5ccccn5)ncnc4N3C)c12 [Compound 2002, 1-(4-methoxy-7-(3-methyl-1H-1,2,4-triazol-1-yl)-1H-pyrrolo[2,3-c]pyridin-3-yl)-2-(1-methyl-5-(pyridin-2-yl)-3,4-dihydropyrimido[4,5-c]pyridazin-2(1H)-yl)ethane-1,2-dione] | < 500 |  |
| COc1cnc(-n2cnc(C)n2)c2[nH]cc(C(=O)C(=O)N3C(C)Cc4c(-c5ccccc5)ncnc4N3C)c12 (stereo not drawn) [Compound 2003, 1-(1,3-dimethyl-5-phenyl-3,4-dihydropyrimido[4,5-c]pyridazin-2(1H)-yl)-2-(4-methoxy-7-(3-methyl-1H-1,2,4-triazol-1-yl)-1H-pyrrolo[2,3-c]pyridin-3-yl)ethane-1,2-dione] | < 500 |  |
| COc1cnc(-n2cnc(C)n2)c2[nH]cc(C(=O)C(=O)N3CCc4c(ncnc4-c4ccccc4)N3)c12 [Compound 2004, 1-(4-methoxy-7-(3-methyl-1H-1,2,4-triazol-1-yl)-1H-pyrrolo[2,3-c]pyridin-3-yl)-2-(5-phenyl-3,4-dihydropyrimido[4,5-c]pyridazin-2(1H)-yl)ethane-1,2-dione] | < 500 |  |
